# Where two headings read alike, the source gives them in different places.
# What was measured:
# CYP3A4 [1] = target: T1, CYP3A4 (Homo sapiens, UniProt P08684); assay type: in vitro ADME
# CYP1A2 = experiment: Unbound intrinsic metabolic clearance assigned to CYP1A2; assay type: in vitro ADME; settings: human, human liver microsomes and recombinant enzymes
# [2] = cited from earlier work
# [3] = Unbound intrinsic metabolic clearance; assay type: in vitro ADME; settings: human
# CYP3A4 [4] = target: T1, CYP3A4; settings: cited from earlier work
# CYP2C8 = experiment: Unbound intrinsic metabolic clearance assigned to CYP2C8; assay type: in vitro ADME; settings: human, human liver microsomes and recombinant enzymes
# [5] = olanzapine PBPK input, cited from earlier work
# UGT1A4 = experiment: Unbound intrinsic metabolic clearance assigned to UGT1A4; assay type: in vitro ADME; settings: human, human liver microsomes and recombinant enzymes
# [6] = cited from earlier work; remark: listed apart in the source
# [7] = Caco-2 apical-to-basolateral apparent permeability; assay type: in vitro ADME; settings: human
# FMO3 = experiment: Unbound intrinsic metabolic clearance assigned to FMO3; assay type: in vitro ADME; settings: human, human liver microsomes and recombinant enzymes
# [8] = Renal clearance / renal excretion of unchanged drug; settings: human, in vivo
# κ‐opioid receptors = settings: in vitro; cited from earlier work
# [9] = Physicochemical properties used as PBPK inputs; settings: samidorphan, unpublished data provided by Alkermes
# human δ‐opioid receptor = settings: in vitro; cited from earlier work
# non-CYP3A4 enzymes = experiment: Unbound intrinsic metabolic clearance; assay type: in vitro ADME; settings: human
# opioid receptor = settings: cited from earlier work
# human κ‐opioid receptor = settings: in vitro; cited from earlier work
# δ‐opioid receptors = settings: in vitro; cited from earlier work
# [10] = Fraction unbound in microsomal incubation; assay type: in vitro ADME; settings: 0.5 mg/mL microsomal incubation; unpublished data provided by Alkermes
# μ‐opioid receptors = settings: in vitro; cited from earlier work
# CYP2D6 = CYP2D6 (Homo sapiens, UniProt P10635); experiment: CYP2D6 competitive inhibition; assay type: biochemical
# Sequence of CYP2D6 (P10635 whole entry): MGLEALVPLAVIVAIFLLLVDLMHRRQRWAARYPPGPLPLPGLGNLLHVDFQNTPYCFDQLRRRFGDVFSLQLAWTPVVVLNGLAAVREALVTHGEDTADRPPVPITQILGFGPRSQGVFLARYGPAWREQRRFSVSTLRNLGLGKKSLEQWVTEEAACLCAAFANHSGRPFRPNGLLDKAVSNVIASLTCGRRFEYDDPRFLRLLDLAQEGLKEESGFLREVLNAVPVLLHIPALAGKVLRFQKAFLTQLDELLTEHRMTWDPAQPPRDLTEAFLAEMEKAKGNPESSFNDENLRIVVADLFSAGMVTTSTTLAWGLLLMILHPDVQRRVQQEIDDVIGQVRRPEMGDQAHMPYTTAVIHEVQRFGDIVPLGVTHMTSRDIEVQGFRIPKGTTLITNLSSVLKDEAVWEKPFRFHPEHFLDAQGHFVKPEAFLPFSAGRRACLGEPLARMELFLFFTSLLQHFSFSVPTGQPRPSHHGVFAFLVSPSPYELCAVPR
# human μ‐opioid receptor = settings: in vitro; cited from earlier work
# [11] = Blood-to-plasma partition ratio and fraction unbound in plasma; assay type: in vitro ADME
# [12] = ± itraconazole 200 mg q.d., observed, sublingual BUP/SAM 2/2
# T1 sequence (P08684 whole entry): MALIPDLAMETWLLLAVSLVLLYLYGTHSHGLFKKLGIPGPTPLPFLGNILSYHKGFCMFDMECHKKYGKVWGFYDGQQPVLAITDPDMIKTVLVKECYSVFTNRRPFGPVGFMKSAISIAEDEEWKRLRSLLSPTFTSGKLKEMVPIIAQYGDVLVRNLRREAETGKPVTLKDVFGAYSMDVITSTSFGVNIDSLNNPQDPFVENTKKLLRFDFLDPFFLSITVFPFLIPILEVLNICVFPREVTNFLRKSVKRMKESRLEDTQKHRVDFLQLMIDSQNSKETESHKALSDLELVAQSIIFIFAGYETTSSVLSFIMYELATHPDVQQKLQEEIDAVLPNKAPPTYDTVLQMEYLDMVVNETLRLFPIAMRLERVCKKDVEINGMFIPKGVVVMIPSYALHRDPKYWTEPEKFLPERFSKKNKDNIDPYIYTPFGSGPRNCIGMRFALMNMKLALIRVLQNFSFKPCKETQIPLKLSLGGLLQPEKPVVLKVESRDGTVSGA
smiles,measurement,setting,value
"Cc1cc2c(s1)Nc1ccccc1N=C2N1CCN(C)CC1 [Olanzapine, olanzapine]",microsomal CLint,CYP3A4 [1]; human liver microsomes and recombinant enzymes,4.42 µL/min/mg
same,microsomal CLint,CYP1A2,23.7 µL/min/mg
same,administered dose excreted renally as unchanged drug,[2],7%
same,CLR (renal clearance),"[2]; olanzapine, ref Kassahun et al.15",0.81 L/h
same,microsomal CLint,[3],57.9 µL/min/mg
same,contribution of CYP3A4 to the overall clearance,CYP3A4 [4],< 10%
same,microsomal CLint,CYP2C8,4.98 µL/min/mg
same,Compound type,[5]; ref Callaghan et al.21,Monoprotic base
same,log P,[5]; ref El‐Ela et al.29,2.89
same,microsomal CLint,UGT1A4,20.6 µL/min/mg
same,AUC lower in smokers than in nonsmokers,[6]; pharmacokinetics study (N = 49),15%
same,"increase in clearance, smokers vs. nonsmokers",[6]; population pharmacokinetic analysis (N = 523),55%
same,Papp A→B,"[7]; Caco-2, pH 7.4",17.4 ×10⁻⁶ cm/s
same,microsomal CLint,FMO3,4.28 µL/min/mg
"NC(=O)c1ccc2c(c1O)[C@]13CCN(CC4CC4)[C@H](C2)[C@]1(O)CCC(=O)C3 [Samidorphan, samidorphan]",CL renal,[8],183 mL/min
same,functional activity (in words),κ‐opioid receptors,partial agonist
same,microsomal CLint,CYP3A4 [1],5.93 µL/min/mg
same,pKa,[9]; pKa1 (acid),7.5
same,pKa,[9]; pKa2 (base),8.2
same,Compound type,[9],Ampholyte
same,binding affinity (in words),human δ‐opioid receptor,high affinity
same,microsomal CLint,non-CYP3A4 enzymes,5.22 µL/min/mg
same,microsomal CLint,[3],11.2 µL/min/mg
same,in vivo function (in words),opioid receptor,opioid receptor antagonist
same,binding affinity (in words),human κ‐opioid receptor,high affinity
same,AUC ratio (geometric mean),[6]; [12],1.50
same,Cmax ratio (geometric mean),[6]; [12],1.12
same,functional activity (in words),δ‐opioid receptors,partial agonist
same,fumic at 0.5 mg/mL,[10],0.86
same,functional activity (in words),μ‐opioid receptors,antagonist
same,Ki,CYP2D6,41.5 µM
same,Papp A→B,"[7]; Caco-2, pH 6.5",18.8 ×10⁻⁶ cm/s
same,binding affinity (in words),human μ‐opioid receptor,high affinity
same,fraction unbound,[11]; plasma,0.69
same,B:P (blood‐to‐plasma partition ratio),"[11]; samidorphan, unpublished data provided by Alkermes",1

# — article PMC7020312 (CPT: Pharmacometrics & Systems Pharmacology, 2020)
